Experimental data from patent US7897340B2, “Use of tumor susceptibilty gene 101 (TSG 101) as a prognostic and diagnostic marker” (The Board of Regents of the University of Texas System, priority 2006, dated 2011).

Columns and labels:
Format in all cases: cell-based, human
[1] = test system: CITED2 mRNA; assay: CITED2 mRNA by RT-PCR in SKOV-3 cells; conditions: SKOV-3, 3 days following siRNA transfection
Procedure: Total RNA was isolated from cells using Trizol reagent (Invitrogen), and concentration was determined by absorbance at 260 nm. Real-Time PCR analysis was carried out using fluorescent TSG101 primers on an Applied Biosystems Prism 7000 Sequence Detection System. RT-PCR was carried out for TSG101 and HIF-1α using 1 μg of isolated total RNA under the following parameters: 94° C. 1 min, 57° C. 1 min and 72° C. 1.5 min, 35 cycles. Primers used for RT-PCR were TSG10 forward 5′-[…]-3′ (SEQ ID NO: 1), reverse 5′-TTTCCTCC TTCATCCGCCATCTC-3′ (SEQ ID NO: 2), CITED2 forward 5′-[…]-3′ (SEQ ID NO: 3), reverse 5′-[…]-3′ (SEQ ID NO: 4), HIF-1a ? forward 5′-[…]-3′ (SEQ ID NO: 5), reverse 5′-[…]-3′ (SEQ ID NO: 6).
(§1) A siRNA duplex specific for TSG101 (targeting TSG101 coding sequence 413-433) and a scrambled random control siRNA with matching GC content were obtained from Dharmacon. This specific TSG101 siRNA duplex (sense: CCUCCAGUCUUCUCUCGUCdTdT (SEQ ID NO: 7) and antisense: dTd[…] (SEQ ID NO: 8) have been successfully applied to suppress the expression of endogenous TSG101 in several high quality studies (Amit et al., 2004; Garrus et al., 2001; Hewitt et al., 2002; Ismaili et al., 2005). Transfection of the siRNAs was according to the manufacturer's instructions using Lipofectamine 2000 (Invitrogen).

[2] = test system: HIF-1α transcriptional activity; assay: HIF-1α GFP reporter assay (HRE-GFP) in SKOV-3 cells
Procedure: Cells were plated at 1×10^5 in 3.5 cm wells and grown overnight at 37° C. The following day cells were transfected with 375 ng/well of either TSG101 or control siRNA duplex using Lipofectamine 2000. Cells were then passaged at 48 hrs post-transfection and used for subsequent experiments. The HIF-1α response element (HRE)-GFP reporter (a generous gift from Mark Dewhirst) was transfected into cells 48 hrs after transfection with siRNA reagents, and subsequently plated onto microscope cover slips. On the fifth day following siRNA transfection, cells on cover slips were rinsed in PBS and fixed in 2% paraformaldehyde for 15 min. Nuclear staining was carried out with DAPI (5 ng/ml) for 5 min, after which slides were mounted and observed using a fluorescence microscope (Olympus BX51) equipped with a Hamamatsu digital camera (C4742-95).
To test the functional consequence of TSG101 knock-down mediated down-regulation of CITED2/HIF-1 ? HIF-1 ? transcriptional activity was examined using a HIF-1-inducible fluorescent reporter. This construct was created by splicing five copies of the hypoxia regulatory element (HRE) upstream of enhanced green fluorescent protein (GFP), which provided a convenient method for monitoring HIF-1 activity levels by following GFP expression using fluorescence microscopy (Moeller et al., 2004).

[3] = test system: CITED2; assay: CITED2 protein by immunoblotting in SKOV-3 cells; conditions: SKOV-3, immunoblotting
Source text: Antigen-antibody complexes were detected by enhanced chemiluminescence (Pierce).
as §1

[4] = test system: TSG101 recruitment to the p21 promoter; assay: Chromatin immunoprecipitation (ChIP) assay with TSG101 antibody; conditions: SKOV-3, ChIP with TSG101 antibody, vs control siRNA
Source text: Pelleted DNA was resuspended in TBE. […] ID NO: 11), reverse [NT] ID NO:12).

[5] = test system: caspase 3; assay: Caspase activity assay; conditions: SKOV-3 lysates, 6 days following transfection
Procedure: SKOV-3 cells transfected with either control or TSG101 siRNA were grown in 10 cm plates to 70-80% confluence, then harvested by trypsinization, washed twice in PBS and once in wash buffer (100 mM HEPES pH 7.4, 0.5 mM EDTA, 1 mM DTT, 0.1 mM PMSF, 2 μg/ml leupeptin, 2 μg/ml pepstatin). The cells were lysed on ice for 30 min with frequent vortexing in 150 μl of lysis buffer (wash buffer plus 1% Triton-X100). Cell debris was removed by centrifugation at 16,000 g for 20 min at 4° C. Lysate protein concentration was determined by Bradford assay (Bio-Rad). Caspase 3 activity was measured using fluorogenic substrates […] that is specific for caspase 3. Release of free AFC was monitored using a Fluoroskan fluorescence microplate reader with excitation and emission set to 405 and 510 nm, correspondingly.

[6] = test system: SKOV-3 cells; assay: Cell viability MTT assay; conditions: SKOV-3, days 3 to 7 post transfection, vs scrambled control siRNA
Source text: as §1
SKOV-3 cells were trypsinized 48 hrs post-transfection with siRNAs and plated at 2×10^3 cells/well in 96 well plates, with 5 wells for each treatment. On subsequent days (days 3 to 7), media was removed and 100 μl/well fresh media was added along with 10 μl of 3-(4,5-dimethylthiazol-2-yl)-2,5-diphenyl tetrazolium bromide (MTT) to a final concentration of 500 μg/ml. Cells were incubated for 3 hrs at 37° C., and then lysed by adding 200 μl/well DMSO and incubating at 37° C. for 1 hr. Cell viability was measured by reduction of MTT, which registered absorbance at 595 nm on a Molecular Devices microplate reader.

[7] = test system: TSG101; assay: TSG101 expression after siRNA by semiquantitative PCR and immunoblotting in SKOV-3 cells; conditions: SKOV-3, semi-quantitative PCR and immunoblotting
Source text: as §1
Total RNA was isolated from cells using Trizol reagent (Invitrogen), and concentration was determined by absorbance at 260 nm. Semiquantitative RT-PCR was carried out using 1 μg of isolated total RNA. Primers used for RT-PCR were TSG101 forward 5′-[…]-3′ (SEQ ID NO: 1), reverse 5′-[…]-3′ (SEQ ID NO:2), p21 forward 5′-[…]-3′ (SEQ ID NO: 9), reverse 5′-CCGTTTTCGACCCTGAGAG-3′ (SEQ ID NO:10).
Cells transfected with either control or TSG101 siRNA were passaged and subsequently harvested on the appropriate days by trypsinizing cells, washing pelleted cells in PBS and then lysing cells in SDS lysis buffer. Protein concentration of cell lysates was assayed with the Bio-Rad protein assay reagent. […] Immunoblots were developed by enhanced chemiluminescence (Pierce, Rockford, Ill.).

## TSG101 siRNA: siRNA duplex from Dharmacon targeting TSG101 coding sequence 413-433, SEQ ID NO: 7 and 8 (chain 1 CCUCCAGUCUUCUCUCGUCTT; chain 2 TTGGAGGUCAGAAGAGAGCAG; chemistry not fully specified; one strand is listed 3' to 5')
[1]
  CITED2 mRNA expression: significantly down-regulated
[2]; SKOV-3, fluorescence microscopy, 4 days post-transfection as printed
  fluorescent signal from GFP expression (HRE-GFP): significantly decreased
[2]; SKOV-3, immunoblotting
  GFP protein expression (HRE-GFP): significantly decreased expression of GFP
[3]
  cellular levels of CITED2 protein: significantly reduced
[4]
  recruitment of TSG101 to the p21 promoter: dramatically reduced
[5]
  caspase 3 activity: apparent increases
[6]
  cell viability (MTT): decrease dramatically in number beginning 5 days post transfection
[7]
  TSG101 expression (mRNA and protein): Suppression of TSG101 expression was confirmed
